{
  "source": "paper PMC9921564",
  "about": "“Novel Indole-Containing Hybrids Derived from Millepachine: Synthesis, Biological Evaluation and Antitumor Mechanism Study” (Molecules, 2023)",
  "key": {"[1]": {"tested_on": "MCF-7/DOX (MCF-7 cell line resistant to doxorubicin)", "assay": "CCK-8 cytotoxicity, MCF-7/DOX", "type": "cell-based", "settings": "Homo sapiens, MCF7-DOX; 48 h, CCK-8, doxorubicin-resistant; read-out: IC50, Mean ± SE, MCF-7/DOX", "procedure": "Besides the high cytotoxicity, drug resistance is the other limiting factor of chemotherapeutics. In this study, the cytotoxicities of compound 14b towards five kinds of drug-resistant cancer cell lines were also evaluated. Except three kinds of cell lines that are resistant to three drugs commonly used in clinical practice, two kinds of cell lines that are resistant to MTAs were also evaluated.\nA549 (non-small-cell-lung cancer cell line), Caski (human epithelial cervical cancer cell line), HepG2 (human liver carcinoma cell line), MCF-7 (human breast carcinoma cell line), C42B (human prostate cancer line C42B), L-02 (human normal hepatocytes), RWPE-1 (human prostate epithelial cells) and MCF-10A (human normal mammary epithelial cells) were obtained from National Collection of Authenticated Cell Cultures (Shanghai, China). […]\nAfter 24 h, the medium containing different concentrations of tested compounds were added for another 48 h. […] The optical density was recorded with a microplate reader at 570 nm (Thermo Scientific, Varioskan LUX). All the experiments were repeated independently at least three times and the IC50 values were calculated […]\nThe fluorescence intensity enhancement (emission wavelength is 410 nm, excitation wavelength is 340 nm) was recorded every 60 s for 60 min in a multifunction microplate reader (Molecular Devices, Flex Station 3). […]"}, "A549 cells": {"tested_on": "A549 cells", "assay": "MMP detection by JC-1", "type": "cell-based, human", "settings": "A549, 10, 20 and 50 nM, 12 h", "excerpt": "The intrinsic mitochondrial pathway is one of the most well-studied mechanisms relevant to cell apoptosis. ROS accumulation and mitochondrial membrane potential (MMP) alteration play crucial roles in this pathway. In this study, a fluorescent dye including DCFH-DA and JC-1 was used to monitor the intracellular ROS and MMP, respectively.\nFigure 5 ROS accumulation and MMP alteration induced by compound 14b. (A,B) The intracellular ROS detection by DCFH-DA after A549 cells treated with compound 14b at indicated concentrations for 12 h. (C,D) The detection of MMP monitored by JC-1 dye after A549 cells treated with compound 14b at the concentrations of 10, 20 and 50 nM for 12 h. […]\nsamples were fixed in ice-cold 70% ethanol overnight and removed with ice-cold PBS for three times. […] After the incubation, the prepared cell samples were immediately analyzed. Almost 10,000 events were detected by flow cytometry (Beckman Coulter, CytoFlex LX). The data regarding the number of cells in different phases of the cell cycle were or apoptotic cells were analyzed by […]\nCaspase-3 activity was measured according to the manufacturer ’s instructions using a GreenNuc™ Caspase-3 assay kit for live cells (Beyotime, China). […] After incubation, the fluorescence intensity (excitation wavelength:\n485 nm, emission wavelength: 515 nm) was recorded using a multifunctional microplate reader (Thermo Scientific, Varioskan LUX). […]"}},
  "data": [
    {"smiles": "COc1ccc(C(=O)c2ccc3c(ccn3C)c2)c2c1C=CC(C)(C)O2", "note": "[compound 14b, (5-methoxy-2,2-dimethyl-2H-chromen-8-yl)(1-methyl-1H-indol-5-yl)methanone]", "values": [
      {"measurement": "IC50", "setting": "[1]", "value": "51 ± 24", "unit": "nM"},
      {"measurement": "MMP, ratio of JC-1 aggregates to monomers", "setting": "A549 cells", "value": "remarkably decreased"}
    ]}
  ]
}
